Data on 37 compounds can be found in patent US7872036B2, “3-triazolylphenyl sulfide derivative and insecticide, miticide and nematicide containing it as an active ingredient” (Kumiai Chemical Industry Co., Ltd., priority 2004, dated 2011).

Each structure is given as a SMILES string.

The test system of assay [1] is two-spotted spider mites. Briefly: Miticidal test on two-spotted spider mites (by soil drenching). Type of assay: in vivo, Tetranychus urticae. More on the design: scale not given here. The conditions noted are these: active ingredient 100 ppm, 5 ml per 100 g soil, 25° C., 13 days. On the procedure:
Wettable powders were prepared in accordance with Formulation Example 2 and diluted with water to an active ingredient concentration of 100 ppm. 100 g of the soil in cups with soybean seedlings which had been inoculated with imago two-spotted spider mites were drenched with 5 ml of the resulting solutions. The treated seedlings were placed in a […] chamber at 25° C. for 13 days, and the mite survivors were counted for calculation of the miticidal value by using Equation 2.

Assay [2] has as its system two-spotted spider mites. Briefly: Miticidal test on two-spotted spider mites (by dipping). Type of assay: in vivo, Tetranychus urticae. More on the design: scale not given here. The conditions noted are these: dipping of soybean seedlings, active ingredient 500 ppm, 25° C., 13 days. On the procedure:
Wettable powders were prepared in accordance with Formulation Example 2 and diluted with water to an active ingredient concentration of 500 ppm. Soybean seedlings which had been inoculated with imago two-spotted spider mites were dipped in the resulting solutions and dried in air. The treated seedlings were placed in a thermostatic chamber at 25° C. for 13 days, and the mite survivors were counted for calculation of the miticidal value by using Equation 2. The test was carried out by one series system.

Assay [3] relates to brown planthoppers. Briefly: Insecticidal test on brown planthoppers. Type of assay: in vivo, Nilaparvata lugens. The conditions noted are these: active ingredient 500 ppm, germinating rice immersed, 4th-instar larvae, 25° C., 6 days. On the procedure:
Wettable powders were prepared in accordance with Formulation Example 2 and diluted with water to an active ingredient concentration of 500 ppm. Germinating rice was immersed in the resulting solutions and put in a plastic cup with a capacity of 60 ml. Ten 4th-instar larvae of brown planthoppers were released to the cup, and the cup was covered and placed in a thermostatic chamber at 25° C. for 6 days, and the survivors were counted for calculation of the insecticidal degree by using Equation 1. The test was carried out by one series system.

In the case of `Cc1cc(F)c(-n2nc(SC(F)(F)C(F)(F)F)nc2N)cc1[S+]([O-])CC(F)(F)F` (racemic) [Compound 177], the Miticidal value in assay [1] and in assay [2] was 100 throughout.

In the case of `Cc1cc(F)c(-n2nc(C(C(F)(F)F)C(F)(F)F)nc2N)cc1[S+]([O-])CC(F)(F)F` (racemic) [Compound 183], the Miticidal value in assay [1] and in assay [2] was 100 in each case.

In the case of `C#CCNc1nc(SCC(F)(F)F)nn1-c1cc([S+]([O-])CC(F)(F)F)c(C)cc1F` (racemic) [Compound 185], the Miticidal value in assay [1] and in assay [2] was 100 throughout. Besides, the “Insecticidal degree (%)” value in assay [3] is 100%.

On to `CCC(=O)Nc1nc(C(F)(F)F)nn1-c1cc([S+]([O-])CC(F)(F)F)c(C)cc1F` (racemic) [Compound 187], for which the values for the Miticidal value in assay [1] and in assay [2] were 99 and 100, respectively. The “Insecticidal degree (%)” value in assay [3] was determined as 100%.

In the case of `Cc1cc(F)c(-n2nc(C(F)(F)F)nc2NC(=O)CCl)cc1[S+]([O-])CC(F)(F)F` (racemic) [Compound 190], the Miticidal value in assay [1] and in assay [2] was 100 each time. Also, the “Insecticidal degree (%)” value in assay [3] is 100%.

`Cc1cc(F)c(-n2nc(C(F)(F)F)nc2NC(=O)C(F)(F)Cl)cc1[S+]([O-])CC(F)(F)F` (racemic) [Compound 192]: the Miticidal value in assay [1] and in assay [2] was 100 throughout. In addition, in assay [3], the “Insecticidal degree (%)” value was found to be 100%.

For `C#CCNc1nc(SC(F)(F)C(F)(F)F)nn1-c1cc([S+]([O-])CC(F)(F)F)c(C)cc1F` (racemic) [Compound 194], the Miticidal value in assay [1] and in assay [2] was 100 throughout. Moreover, the “Insecticidal degree (%)” value in assay [3] turned out to be 100%.

Regarding `Cc1cc(F)c(-n2nc(C(F)(F)F)nc2NC(=O)NC(C)C)cc1[S+]([O-])CC(F)(F)F` (racemic) [Compound 202], the Miticidal value in assay [1] and in assay [2] was 100 each time. For the same compound, the “Insecticidal degree (%)” value in assay [3] is 100%.

Regarding `Cc1cc(F)c(-n2nc(C(F)(F)F)nc2N)cc1[S+]([O-])CC1CC1` (stereo not drawn) [Compound 4], the Miticidal value in assay [1] and in assay [2] was 100 throughout. The “Insecticidal degree (%)” value in assay [3] is reported as 90%.

Consider `Cc1cc(F)c(-n2nc(C(F)(F)F)nc2NC(=O)C(F)(F)F)cc1SCC(F)(F)F` [Compound 5, [5-(5-trifluoroacetylamino-3-trifluoromethyl-1,2,4-triazolyl)-4-fluoro-2-methylphenyl]2,2,2-trifluoroethyl sulfide], for which the Miticidal value in assay [1] and in assay [2] was 100 in each case. Besides, in assay [3], the “Insecticidal degree (%)” value is reported as 100%.

With `Cc1cc(Cl)c(-n2nc(C(F)(F)F)nc2N)cc1[S+]([O-])CC(F)(F)F` (stereo not drawn) [Compound 8, [5-(5-amino-3-trifluoromethyl-1,2,4-triazolyl)-4-chloro-2-methylphenyl]2,2,2-trifluoroethyl sulfoxide], the Miticidal value in assay [1] and in assay [2] was 100 each time.

On to `Cc1cc(F)c(-n2nc(SC(F)F)nc2N)cc1[S+]([O-])CC(F)(F)F` (stereo not drawn) [Compound 28], for which the Miticidal value in assay [1] and in assay [2] was 100 throughout. Moreover, the “Insecticidal degree (%)” value in assay [3] worked out at 100%.

For `Cc1cc(F)c(-n2nc(SC(F)(F)F)nc2N)cc1[S+]([O-])CC(F)(F)F` (stereo not drawn) [Compound 32], the Miticidal value in assay [1] and in assay [2] was 100 in each case. Besides, the “Insecticidal degree (%)” value in assay [3] came to 100%.

In the case of `CNc1nc(C(F)(F)F)nn1-c1ccc(C)c(SCC(F)(F)F)c1` [Compound 37], the Miticidal value in assay [1] and in assay [2] was 100 in each case. Moreover, the “Insecticidal degree (%)” value in assay [3] amounted to 100%.

`Cc1cc(C)c([S+]([O-])CC(F)(F)F)cc1-n1nc(C(F)(F)F)nc1N` (stereo not drawn) [Compound 56]: the Miticidal value in assay [1] and in assay [2] was 100 in each case.

In the case of `CCNc1nc(C(F)(F)F)nn1-c1cc([S+]([O-])CC(F)(F)F)c(C)cc1F` (stereo not drawn) [Compound 60], the Miticidal value in assay [1] and in assay [2] was 100 in each case. Besides, the “Insecticidal degree (%)” value in assay [3] turned out to be 100%.

With `CC(=O)Nc1nc(C(F)(F)F)nn1-c1cc([S+]([O-])CC(F)(F)F)c(C)cc1F` (stereo not drawn) [Compound 76], the Miticidal value in assay [1] and in assay [2] was 100 throughout. In assay [3], the “Insecticidal degree (%)” value is 100%.

For `COC(=O)Nc1nc(C(F)(F)F)nn1-c1cc([S+]([O-])CC(F)(F)F)c(C)cc1F` (stereo not drawn) [Compound 80], the Miticidal value in assay [1] and in assay [2] was 100 in each case. Besides, the “Insecticidal degree (%)” value in assay [3] is 100%.

As to `Cc1cc(F)c(-n2nc(C(F)(F)F)nc2NC(=O)N(C)C)cc1[S+]([O-])CC(F)(F)F` (stereo not drawn) [Compound 84], the Miticidal value in assay [1] and in assay [2] was 100 throughout. Also, the “Insecticidal degree (%)” value in assay [3] came out at 100%.

Regarding `CNc1nc(C(F)(F)F)nn1-c1cc([S+]([O-])CC(F)(F)F)c(C)cc1Cl` (stereo not drawn) [Compound 98], the Miticidal value in assay [1] and in assay [2] was 100 throughout.

As for `Cc1cc(F)c(-n2nc(SC(F)(F)F)nc2NC(=O)C(F)(F)F)cc1SCC(F)(F)F` [Compound 99], the Miticidal value in assay [1] and in assay [2] was 100 each time. Besides, in assay [3], the “Insecticidal degree (%)” value turned out to be 100%.

As to `Cc1cc(F)c(-n2nc(C(C)(C)C#N)nc2N)cc1[S+]([O-])CC(F)(F)F` (stereo not drawn) [Compound 104], the Miticidal value in assay [1] and in assay [2] was 100 each time.

For `Cc1cc(F)c(-n2nc(CC(C)(C)C)nc2N)cc1[S+]([O-])CC(F)(F)F` (stereo not drawn) [Compound 107], the Miticidal value in assay [1] and in assay [2] was 100 each time.

On to `Cc1cc(F)c(-n2nc(C(C)C)nc2N)cc1[S+]([O-])CC(F)(F)F` (stereo not drawn) [Compound 111], for which the Miticidal value in assay [1] and in assay [2] was 100 in each case. The “Insecticidal degree (%)” value in assay [3] is listed as 100%.

Regarding `CC(=O)Nc1nc(C(C)(C)C)nn1-c1cc([S+]([O-])CC(F)(F)F)c(C)cc1F` (stereo not drawn) [Compound 113], the Miticidal value in assay [1] and in assay [2] was 100 in each case. For the same compound, the “Insecticidal degree (%)” value in assay [3] is 100%.

As to `CCc1nc(N)n(-c2cc([S+]([O-])CC(F)(F)F)c(C)cc2F)n1` (stereo not drawn) [Compound 117], the Miticidal value in assay [1] and in assay [2] was 100 each time. Further, the “Insecticidal degree (%)” value in assay [3] is on record as 100%.

As to `CCC(C)(C)c1nc(N)n(-c2cc([S+]([O-])CC(F)(F)F)c(C)cc2F)n1` (stereo not drawn) [Compound 119], the Miticidal value in assay [1] and in assay [2] was 100 throughout. In assay [3], the “Insecticidal degree (%)” value amounted to 90%.

Consider `N#Cc1ccc(-n2nc(C(F)(F)F)nc2N)cc1[S+]([O-])CC(F)(F)F` (stereo not drawn) [Compound 121], for which the Miticidal value in assay [1] and in assay [2] was 100 each time.

Consider `Cc1cc(F)c(-n2nc(C(C)(C)C)nc2N)cc1[S+]([O-])CC(F)(F)F` (stereo not drawn) [Compound 145], for which the Miticidal value in assay [1] and in assay [2] was 100 throughout.

For the compound `CNc1nc(C(F)(F)F)nn1-c1cc([S+]([O-])CC(F)(F)F)c(C)cc1C` (stereo not drawn) [Compound 147], the Miticidal value in assay [1] and in assay [2] was 100 each time.

For the compound `Cc1ccc(-n2nc(C(F)(F)F)nc2NC(=O)C(F)(F)F)cc1[S+]([O-])CC(F)(F)F` (stereo not drawn) [Compound 153], the Miticidal value in assay [1] and in assay [2] was 100 in each case. Further, in assay [3], the “Insecticidal degree (%)” value worked out at 100%.

As for `CC(=O)Nc1nc(SCC(F)(F)F)nn1-c1cc([S+]([O-])CC(F)(F)F)c(C)cc1F` (stereo not drawn) [Compound 155], the Miticidal value in assay [1] and in assay [2] was 100 throughout. Besides, in assay [3], the “Insecticidal degree (%)” value is reported as 90%.

For `CC(=O)Nc1nc([S+]([O-])CC(F)(F)F)nn1-c1cc([S+]([O-])CC(F)(F)F)c(C)cc1F` (stereo not drawn) [Compound 157], the Miticidal value in assay [1] and in assay [2] was 100 each time. In assay [3], the “Insecticidal degree (%)” value is 100%.

For `Cc1cc(F)c(-n2nc(C(F)(F)F)nc2NC(C)C)cc1[S+]([O-])CC(F)(F)F` (stereo not drawn) [Compound 167], the Miticidal value in assay [1] and in assay [2] was 100 in each case. Besides, in assay [3], the “Insecticidal degree (%)” value amounted to 100%.

On to `CNC(=O)Nc1nc(C(F)(F)F)nn1-c1cc([S+]([O-])CC(F)(F)F)c(C)cc1F` (stereo not drawn) [Compound 169], for which the Miticidal value in assay [1] and in assay [2] was 100 in each case. The “Insecticidal degree (%)” value in assay [3] came to 100%.

`O=Cc1ccc(-n2cnc(C(F)(F)F)n2)cc1[S+]([O-])CC(F)(F)F` (stereo not drawn) [a, reference compound]: the values for the Miticidal value in assay [1] and in assay [2] were 0 and 100, respectively.

`[O-][S+](CC(F)(F)F)c1cc(-n2cnc(C(F)(F)F)n2)ccc1CF` (stereo not drawn) [b, reference compound]: the figures for the Miticidal value in assay [1] and in assay [2] were 0 and 99, respectively.
